{"source": "PubChem BioAssay AID2060600", "about": "(Molecular Pharmacology Branch, DTP, NCI, 2025);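 also: spheroids exposed to the agents for 7 days before readout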", "system": "996289-038-R-J1-PDC complex spheroid viability", "experiment": "Anticancer human tumor 996289-038-R-J1-PDC patient-derived colon adenocarcinoma cell line growth inhibition [CLK]", "details": "for IC50: curve of first compound; for viability, T/C: stronger effect = lower value", "how_it_was_run": "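Multi-cell-type spheroids combined patient-derived tumor cells with HUVEC endothelial cells and human mesenchymal stem cells. Paired agents were dosed in half-log steps down from about clinical Cmax, or from 10 microM where Cmax was unknown.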"}
{"smiles": "C=CC(=O)Nc1cc(Nc2nccc(-c3cn(C)c4ccccc34)n2)c(OC)cc1N(C)CCN(C)C", "note": "+ CNC(=O)c1ccc(Nc2nc(OC3CCCC3)c3c(-c4ccc5nc(C)oc5c4)c[nH]c3n2)c(OC)c1", "values": [{"measurement": "IC50", "setting": "second compound 0.0316 µM", "value": "> 0.3", "unit": "µM"}, {"measurement": "IC50", "setting": "second compound 0.1 µM", "value": "> 0.3", "unit": "µM"}, {"measurement": "IC50", "setting": "second compound 0.316 µM", "value": "> 0.3", "unit": "µM"}, {"measurement": "IC50", "setting": "second compound 1 µM", "value": 0.137, "unit": "µM"}, {"measurement": "IC50", "setting": "second compound 3.16 µM", "value": 0.0918, "unit": "µM"}, {"measurement": "IC50", "setting": "second compound 10 µM", "value": 0.0569, "unit": "µM"}, {"measurement": "viability, T/C", "setting": "second compound 0.0316 µM, first compound 0.000949 µM", "value": 118, "unit": "%"}, {"measurement": "viability, T/C", "setting": "second compound 0.0316 µM, first compound 0.003 µM", "value": 123, "unit": "%"}, {"measurement": "viability, T/C", "setting": "second compound 0.0316 µM, first compound 0.00949 µM", "value": 112, "unit": "%"}, {"measurement": "viability, T/C", "setting": "second compound 0.0316 µM, first compound 0.03 µM", "value": 117, "unit": "%"}, {"measurement": "viability, T/C", "setting": "second compound 0.0316 µM, first compound 0.0949 µM", "value": 113, "unit": "%"}, {"measurement": "viability, T/C", "setting": "second compound 0.0316 µM, first compound 0.3 µM", "value": 85.8, "unit": "%"}, {"measurement": "viability, T/C", "setting": "second compound 0.1 µM, first compound 0.000949 µM", "value": 109, "unit": "%"}, {"measurement": "viability, T/C", "setting": "second compound 0.1 µM, first compound 0.003 µM", "value": 124, "unit": "%"}, {"measurement": "viability, T/C", "setting": "second compound 0.1 µM, first compound 0.00949 µM", "value": 106, "unit": "%"}, {"measurement": "viability, T/C", "setting": "second compound 0.1 µM, first compound 0.03 µM", "value": 109, "unit": "%"}, {"measurement": "viability, T/C", "setting": "second compound 0.1 µM, first compound 0.0949 µM", "value": 110, "unit": "%"}, {"measurement": "viability, T/C", "setting": "second compound 0.1 µM, first compound 0.3 µM", "value": 77.4, "unit": "%"}, {"measurement": "viability, T/C", "setting": "second compound 0.316 µM, first compound 0.000949 µM", "value": 74, "unit": "%"}, {"measurement": "viability, T/C", "setting": "second compound 0.316 µM, first compound 0.003 µM", "value": 74.3, "unit": "%"}, {"measurement": "viability, T/C", "setting": "second compound 0.316 µM, first compound 0.00949 µM", "value": 72.7, "unit": "%"}, {"measurement": "viability, T/C", "setting": "second compound 0.316 µM, first compound 0.03 µM", "value": 69.4, "unit": "%"}, {"measurement": "viability, T/C", "setting": "second compound 0.316 µM, first compound 0.0949 µM", "value": 68.8, "unit": "%"}, {"measurement": "viability, T/C", "setting": "second compound 0.316 µM, first compound 0.3 µM", "value": 52.5, "unit": "%"}, {"measurement": "viability, T/C", "setting": "second compound 1 µM, first compound 0.000949 µM", "value": 69.7, "unit": "%"}, {"measurement": "viability, T/C", "setting": "second compound 1 µM, first compound 0.003 µM", "value": 67.5, "unit": "%"}, {"measurement": "viability, T/C", "setting": "second compound 1 µM, first compound 0.00949 µM", "value": 62, "unit": "%"}, {"measurement": "viability, T/C", "setting": "second compound 1 µM, first compound 0.03 µM", "value": 61.6, "unit": "%"}, {"measurement": "viability, T/C", "setting": "second compound 1 µM, first compound 0.0949 µM", "value": 53.2, "unit": "%"}, {"measurement": "viability, T/C", "setting": "second compound 1 µM, first compound 0.3 µM", "value": 43.1, "unit": "%"}, {"measurement": "viability, T/C", "setting": "second compound 3.16 µM, first compound 0.000949 µM", "value": 64.2, "unit": "%"}, {"measurement": "viability, T/C", "setting": "second compound 3.16 µM, first compound 0.003 µM", "value": 60.8, "unit": "%"}, {"measurement": "viability, T/C", "setting": "second compound 3.16 µM, first compound 0.00949 µM", "value": 56.5, "unit": "%"}, {"measurement": "viability, T/C", "setting": "second compound 3.16 µM, first compound 0.03 µM", "value": 53, "unit": "%"}, {"measurement": "viability, T/C", "setting": "second compound 3.16 µM, first compound 0.0949 µM", "value": 53.1, "unit": "%"}, {"measurement": "viability, T/C", "setting": "second compound 3.16 µM, first compound 0.3 µM", "value": 43.8, "unit": "%"}, {"measurement": "viability, T/C", "setting": "second compound 10 µM, first compound 0.000949 µM", "value": 60.9, "unit": "%"}, {"measurement": "viability, T/C", "setting": "second compound 10 µM, first compound 0.003 µM", "value": 55.9, "unit": "%"}, {"measurement": "viability, T/C", "setting": "second compound 10 µM, first compound 0.00949 µM", "value": 55, "unit": "%"}, {"measurement": "viability, T/C", "setting": "second compound 10 µM, first compound 0.03 µM", "value": 54.7, "unit": "%"}, {"measurement": "viability, T/C", "setting": "second compound 10 µM, first compound 0.0949 µM", "value": 47.4, "unit": "%"}, {"measurement": "viability, T/C", "setting": "second compound 10 µM, first compound 0.3 µM", "value": 38.2, "unit": "%"}]}
{"smiles": "CC1(C)CCC(CN2CCN(c3ccc(C(=O)NS(=O)(=O)c4ccc(NCC5CCOCC5)c([N+](=O)[O-])c4)c(Oc4cnc5[nH]ccc5c4)c3)CC2)=C(c2ccc(Cl)cc2)C1", "note": "+ CNC(=O)c1ccc(Nc2nc(OC3CCCC3)c3c(-c4ccc5nc(C)oc5c4)c[nH]c3n2)c(OC)c1", "values": [{"measurement": "IC50", "setting": "second compound 0.0316 µM", "value": 9.12, "unit": "µM"}, {"measurement": "IC50", "setting": "second compound 0.1 µM", "value": 8.96, "unit": "µM"}, {"measurement": "IC50", "setting": "second compound 0.316 µM", "value": 7.56, "unit": "µM"}, {"measurement": "IC50", "setting": "second compound 1 µM", "value": 6.26, "unit": "µM"}, {"measurement": "IC50", "setting": "second compound 3.16 µM", "value": 5.76, "unit": "µM"}, {"measurement": "IC50", "setting": "second compound 10 µM", "value": 5.18, "unit": "µM"}, {"measurement": "viability, T/C", "setting": "second compound 0.0316 µM, first compound 0.0316 µM", "value": 128, "unit": "%"}, {"measurement": "viability, T/C", "setting": "second compound 0.0316 µM, first compound 0.1 µM", "value": 110, "unit": "%"}, {"measurement": "viability, T/C", "setting": "second compound 0.0316 µM, first compound 0.316 µM", "value": 115, "unit": "%"}, {"measurement": "viability, T/C", "setting": "second compound 0.0316 µM, first compound 1 µM", "value": 127, "unit": "%"}, {"measurement": "viability, T/C", "setting": "second compound 0.0316 µM, first compound 3.16 µM", "value": 139, "unit": "%"}, {"measurement": "viability, T/C", "setting": "second compound 0.0316 µM, first compound 10 µM", "value": 43.5, "unit": "%"}, {"measurement": "viability, T/C", "setting": "second compound 0.1 µM, first compound 0.0316 µM", "value": 125, "unit": "%"}, {"measurement": "viability, T/C", "setting": "second compound 0.1 µM, first compound 0.1 µM", "value": 123, "unit": "%"}, {"measurement": "viability, T/C", "setting": "second compound 0.1 µM, first compound 0.316 µM", "value": 138, "unit": "%"}, {"measurement": "viability, T/C", "setting": "second compound 0.1 µM, first compound 1 µM", "value": 119, "unit": "%"}, {"measurement": "viability, T/C", "setting": "second compound 0.1 µM, first compound 3.16 µM", "value": 134, "unit": "%"}, {"measurement": "viability, T/C", "setting": "second compound 0.1 µM, first compound 10 µM", "value": 41.9, "unit": "%"}, {"measurement": "viability, T/C", "setting": "second compound 0.316 µM, first compound 0.0316 µM", "value": 80.2, "unit": "%"}, {"measurement": "viability, T/C", "setting": "second compound 0.316 µM, first compound 0.1 µM", "value": 82.7, "unit": "%"}, {"measurement": "viability, T/C", "setting": "second compound 0.316 µM, first compound 0.316 µM", "value": 88.7, "unit": "%"}, {"measurement": "viability, T/C", "setting": "second compound 0.316 µM, first compound 1 µM", "value": 90.7, "unit": "%"}, {"measurement": "viability, T/C", "setting": "second compound 0.316 µM, first compound 3.16 µM", "value": 103, "unit": "%"}, {"measurement": "viability, T/C", "setting": "second compound 0.316 µM, first compound 10 µM", "value": 37.5, "unit": "%"}, {"measurement": "viability, T/C", "setting": "second compound 1 µM, first compound 0.0316 µM", "value": 67.2, "unit": "%"}, {"measurement": "viability, T/C", "setting": "second compound 1 µM, first compound 0.1 µM", "value": 67.7, "unit": "%"}, {"measurement": "viability, T/C", "setting": "second compound 1 µM, first compound 0.316 µM", "value": 74, "unit": "%"}, {"measurement": "viability, T/C", "setting": "second compound 1 µM, first compound 1 µM", "value": 74.7, "unit": "%"}, {"measurement": "viability, T/C", "setting": "second compound 1 µM, first compound 3.16 µM", "value": 100, "unit": "%"}, {"measurement": "viability, T/C", "setting": "second compound 1 µM, first compound 10 µM", "value": 31.6, "unit": "%"}, {"measurement": "viability, T/C", "setting": "second compound 3.16 µM, first compound 0.0316 µM", "value": 65, "unit": "%"}, {"measurement": "viability, T/C", "setting": "second compound 3.16 µM, first compound 0.1 µM", "value": 61.7, "unit": "%"}, {"measurement": "viability, T/C", "setting": "second compound 3.16 µM, first compound 0.316 µM", "value": 67.1, "unit": "%"}, {"measurement": "viability, T/C", "setting": "second compound 3.16 µM, first compound 1 µM", "value": 70.7, "unit": "%"}, {"measurement": "viability, T/C", "setting": "second compound 3.16 µM, first compound 3.16 µM", "value": 84.1, "unit": "%"}, {"measurement": "viability, T/C", "setting": "second compound 3.16 µM, first compound 10 µM", "value": 32, "unit": "%"}, {"measurement": "viability, T/C", "setting": "second compound 10 µM, first compound 0.0316 µM", "value": 61.5, "unit": "%"}, {"measurement": "viability, T/C", "setting": "second compound 10 µM, first compound 0.1 µM", "value": 59.1, "unit": "%"}, {"measurement": "viability, T/C", "setting": "second compound 10 µM, first compound 0.316 µM", "value": 61.3, "unit": "%"}, {"measurement": "viability, T/C", "setting": "second compound 10 µM, first compound 1 µM", "value": 72.7, "unit": "%"}, {"measurement": "viability, T/C", "setting": "second compound 10 µM, first compound 3.16 µM", "value": 81.3, "unit": "%"}, {"measurement": "viability, T/C", "setting": "second compound 10 µM, first compound 10 µM", "value": 27, "unit": "%"}]}
